The record followed here is patent publication US11629127B2, “Drug-induced activation of the Reelin signaling system” (UNIVERSITY OF SOUTH FLORIDA, priority 2017, dated 2023).

This test has as its target T1, ApoER2 (Homo sapiens, UniProt Q14114).
T1 construct: expressed in transfected cells; host or cells: HEK293 (named only through the non-transfected controls)
T1 sequence (Q14114 33-963) 1: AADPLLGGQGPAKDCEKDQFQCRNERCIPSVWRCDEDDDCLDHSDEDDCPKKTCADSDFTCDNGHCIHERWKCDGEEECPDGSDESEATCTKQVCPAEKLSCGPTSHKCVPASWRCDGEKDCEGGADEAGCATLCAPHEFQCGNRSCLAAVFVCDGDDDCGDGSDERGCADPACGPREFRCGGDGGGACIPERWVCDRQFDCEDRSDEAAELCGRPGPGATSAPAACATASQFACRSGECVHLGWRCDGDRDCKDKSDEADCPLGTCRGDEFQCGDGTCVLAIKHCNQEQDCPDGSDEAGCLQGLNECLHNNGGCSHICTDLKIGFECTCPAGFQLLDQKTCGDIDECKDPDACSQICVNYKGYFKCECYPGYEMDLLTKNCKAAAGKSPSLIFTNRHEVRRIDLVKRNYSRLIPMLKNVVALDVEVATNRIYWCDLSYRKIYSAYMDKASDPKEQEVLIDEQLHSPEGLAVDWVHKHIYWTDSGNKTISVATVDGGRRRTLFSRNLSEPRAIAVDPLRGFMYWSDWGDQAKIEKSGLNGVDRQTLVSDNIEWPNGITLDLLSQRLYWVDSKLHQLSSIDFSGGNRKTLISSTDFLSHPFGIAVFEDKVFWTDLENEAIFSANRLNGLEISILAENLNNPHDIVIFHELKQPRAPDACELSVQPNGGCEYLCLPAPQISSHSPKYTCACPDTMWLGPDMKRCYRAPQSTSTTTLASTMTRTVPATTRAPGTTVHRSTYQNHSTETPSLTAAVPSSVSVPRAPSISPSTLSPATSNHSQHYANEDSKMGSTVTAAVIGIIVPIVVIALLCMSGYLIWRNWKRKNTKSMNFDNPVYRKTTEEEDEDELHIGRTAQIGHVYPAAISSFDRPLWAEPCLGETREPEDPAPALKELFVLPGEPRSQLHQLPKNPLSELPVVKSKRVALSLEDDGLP
T1 sequence (Q14114 33-963) 2: T1 sequence (Q14114 33-963) 1
Put plainly: ApoER2 luciferase assay (ApoER2 dimerization/clustering). It is filed as cell-based. The settings on record: for changes in firefly/renilla ratios in the ApoER2 luciferase assay: 10 μM concentration, 60 minutes. The source says:
FIG. 3 is a schematic of the ApoER2 Clustering Assay. The ApoER2 clustering assay uses the co-transfection of ApoER2 fusion proteins that express either the C- or N-terminal of the luciferase enzyme (A″) Upon Reelin fragment binding, receptor clustering results in active Luciferase and detectable fluorescence (B″). Controls included non-transfected Hek293 cells. Results are average +/−SEM; n=9-15 assays per fragment
Reelin is able to signal through ApoER2 and VLDLR by clustering the receptors. Receptor clustering results in Dab1 activation and is responsible for the modulation of LTP in wild-type acute hippocampal slices. The ApoER2 luciferase assay was used to measure ApoER2 dimerization. This system used an ApoER2-luciferase fusion protein in which ApoER2 was coupled with either the N- or C-terminus portion of luciferase. Upon receptor clustering, the N- and C-terminus portions of luciferase combined to produce a quantifiable fluorescent signal. As a control, all cells were transfected with a Renilla florescent protein that quantified the number of cells in the testing well. The ratio of luciferase florescence to Renilla florescence was used to determine the effect of small molecules. The ApoER2 luciferase assay (FIG. 3) was used to identify small molecules that mimic the actions of Reelin to activate the Reelin signaling system.
The CNS-Set Library was purchased from ChemBridge® and consisted of 35,000 small molecule compounds. The effects of each compound on Reelin signaling were tested in the absence or presence of purified Reeling with the ApoER2 luciferase assay in a 96-well plate. The assay was used to identify agonists of ApoER2 clustering and luciferase activity and was not particularly sensitive for identifying antagonists of receptor clustering.
Relact02 was tested for inducing dimerization of ApoER2 using luciferase as a reporter. Shown in FIG. 1A is a dose response curve assessing luciferase activity. Activity was determined by dimerization of two ApoER2 receptors fused with a luciferase enzyme reporter at the N- or C-terminal region. The control was a compound with structure similar to but different from Relact02. Shown in FIG. 1B is a time course for the luciferase assay using 5 μM of Relact02 or control molecule. Shown in FIG. 1C is a time course using 5 μM Relact02 alone (black bars) or in the presence of the Reelin protein (gray bars).

Take `CC(C)c1ccc(/C=C/C(=O)Nc2ccc(Cl)cc2Cl)cc1` [(2)]: the “changes in firefly/renilla ratios in the ApoER2 luciferase assay” value was “did not show changes”. As for `CC(C)c1ccc(/C=C/C(=O)Nc2cccc(Cl)c2Cl)cc1` [(3)], the “changes in firefly/renilla ratios in the ApoER2 luciferase assay” value is listed as “did not show changes”. On the same count and under the same terms, next, `CC(C)c1ccc(/C=C/C(=O)Nc2ccc(Cl)cc2)cc1` [(4)]: “did not show changes”; `CC(C)c1ccc(/C=C/C(=O)Nc2ccc(I)cc2Cl)cc1` [(5)]: “did not show changes”. With `CCOC(=O)c1cc(C(=O)NCc2ccccc2)c(=O)[nH]c1C` [Compound E02, ethyl 5-((benzylamino)carbonyl)-2-methyl-6-oxo-1,6-dihydro-3-pyridinecarboxylate, reference compound], the “activation / luciferase activity in the ApoER2 luciferase assay” value (compound screening, 96-well plate) was “no luciferase activity”.
